Measurements as given in US10653658B2, “Biofilm inhibiting compositions enhancing weight gain in livestock” (Akeso Biomedical, Inc., priority 2015, dated 2020).
Marks after values point to notes of the source that are not given here.

Assay: Growth performance of broilers given FeQ or FeTyr in water/feed, dirty litter Campylobacter challenge at day 20 (Example 1)
Assay type: in vivo, Ross 308 male broilers
Settings: for AFD (average feed intake) Day 0-20 / AWG (average weight gain) Day 0-20 / MFCR (mortality adjusted) Day 0-20: before challenge
Protocol: A study was performed to evaluate growth promotion and reduction of Campylobacter carriage using FeQ and FeTyr in Ross 308 male broilers with 7 treatment groups. Each treatment group comprised four replicates of 10 birds per pen (40 birds/treatment group and 4 pens of 10 birds/treatment group), with 2 control groups and 5 test groups. All the test groups and one of the control groups were exposed at day 20 of the trial to dirty litter, which tested positive for Campylobacter. This method was used to provide a more natural method to Campylobacter challenge the birds. Thus there was a positive control where one treatment group was challenged with Campylobacter and one negative control group where the birds were not challenged, and five treatment groups that were all challenged with Campylobacter. The total number of birds used in the 7 treatment groups was 280. Treatment group 1 was a negative control where birds just received the commercial feed, and were not challenged with dirty litter containing Campylobacter. Treatment group 2 was the positive control where the birds received the commercial feed, and were challenged with dirty litter containing Campylobacter at day 20. Treatment group 3 received 0.22 g/L of FeQ in their drinking water and 0.22 g/Kg FeQ in their feed during the entire trial, and was challenged with dirty litter containing Campylobacter at day 20. Treatment group 5 received 0.22 g/L of FeQ in their drinking water during the entire trial, and was challenged with dirty litter containing Campylobacter at day 20. Treatment group 6 received 0.22 g/kg FeQ in their feed during the entire trial, and was challenged with dirty litter containing Campylobacter at day 20. Treatment group 7 received 0.022 g/L FeQ in their drinking water during the entire trial, and was challenged with dirty litter containing Campylobacter at day 20. Treatment group 8 received 0.02 g/L FeTyr in their drinking water during the entire trial, and was challenged with dirty litter containing Campylobacter at day 20. The FeTyr was pre-dissolved in DMSO, and diluted to provide a solution of 0.02 g/L of FeTyr in water. (An additional treatment group 4 was terminated due to solubility issues.)
The birds were fed with a commercial three-phase feeding program using starter, grower and finisher feeds with formulations shown in Table 2. All diets had coccidiostat (MAXIBAN® at 0.0625% in starter and […] and MONTEBAN® at 0.06% in finisher phase). Xylanase (RONOZYME® WX at 200 g per ton) and phytase (RONOZYME® P at 150 grams per ton) were added to all diets.
The feeding program is show in Table 3. The birds were reared in floor pens to day 42, and fed starter, grower and finisher feed at day 0 to 11, 11 to 24, and 24 to 42 days, respectively. All birds were weighed individually and feed weigh backs recorded per pen at day 0, 11, 21, 24 and 42 days.
Prior to challenging the chickens with dirty litter containing Campylobacter at day 20, each pen was tested for Campylobacter using cloacal swabs. All pens tested negative for Campylobacter prior to the challenge. At day 20, litter, which was naturally Campylobacter-contaminated, was tested to confirm the presence of Campylobacter, and then added (approximately 2 kg/pen) to the litter in all pens except in pens for treatment group 1 (the negative control). At day 28, the pen litter was sampled to confirm the presence or absence of Campylobacter. At day 41 and 42, caecal samples were taken from 3 birds per pen (12 birds per treatment group) and tested for Campylobacter enumeration. At day 42, digesta, fecal samples, and caecal content was taken from all birds, and pooled per pen. Two birds per pen were also taken from treatment groups 1-3, euthanized, and blood samples taken. […]

[1] = FeQ groups 3, 5, 6, 7 pooled, absence of Campylobacter challenge
[2] = treatment 3: 0.22 g/L FeQ in water + 0.22 g/kg FeQ in feed
[3] = treatment 5: 0.22 g/L FeQ in water
[4] = treatment 6: 0.22 g/kg FeQ in feed
[5] = treatment 7: 0.022 g/L FeQ in water

SMILES: O=C([O-])C1(O)CC(O)C(O)C(O)C1.O=C([O-])C1(O)CC(O)C(O)C(O)C1.O=C([O-])C1(O)CC(O)C(O)C(O)C1.[Fe+3] (centres unmarked) [FeQ, Ferric Quinate]
- ABW (average body weight) Day 11 [1]: 0.339 kg
- ABW (average body weight) Day 20 [1]: 0.963 kg
- AFD (average feed intake) 0-20 days [1]: 1.191 kg
- AWG (average weight gain) 0-20 days [1]: 0.923 kg
- effect on growth performance in the absence of Campylobacter challenge, first 20 days (compared with control groups 1 and 2): promotes growth of chicken
- ABW (average body weight) Day 0 [2]: 0.040 kg
- ABW (average body weight) Day 11 [2]: 0.346 kg
- ABW (average body weight) Day 20 [2]: 0.972 kg
- ABW (average body weight) Day 25 [2]: 1.424 kg
- ABW (average body weight) Day 42 [2]: 3.342 kg
- AFD (average feed intake) Day 0-11 [2]: 0.356 kg
- AFD (average feed intake) Day 0-42 [2]: 5.267 kg
- AFD (average feed intake) Day 11-20 [2]: 0.857 kg
- AFD (average feed intake) Day 11-25 [2]: 1.524 kg
- AFD (average feed intake) Day 20-25 [2]: 0.667 kg
- AFD (average feed intake) Day 20-42 [2]: 4.054 kg
- AFD (average feed intake) Day 25-42 [2]: 3.387 kg
- AWG (average weight gain) Day 0-11 [2]: 0.306 kg
- AWG (average weight gain) Day 0-42 [2]: 3.302^ab kg
- AWG (average weight gain) Day 11-20 [2]: 0.625 kg
- AWG (average weight gain) Day 11-25 [2]: 1.078 kg
- AWG (average weight gain) Day 20-25 [2]: 0.453 kg
- AWG (average weight gain) Day 20-42 [2]: 2.370^ab kg
- AWG (average weight gain) Day 25-42 [2]: 1.918^ab kg
- EPEF (European production and efficiency factor) Day 20 [2]: 350.4
- EPEF (European production and efficiency factor) Day 42 [2]: 262.9
- MFCR (mortality adjusted FCR) Day 11-20 [2]: 1.375
- MFCR (mortality adjusted FCR) Day 11-25 [2]: 1.417
- MFCR (mortality adjusted FCR) Day 20-25 [2]: 1.477
- MFCR (mortality adjusted FCR) Day 25-42 [2]: 1.773
- MFCR (mortality adjusted feed conversion ratio) Day 0-11 [2]: 1.181^ab
- MFCR (mortality adjusted) Day 0-42 [2]: 1.595
- MFCR (mortality adjusted) Day 20-42 [2]: 1.713
- AFD (average feed intake) Day 0-20 [2]: 1.213 kg
- AWG (average weight gain) Day 0-20 [2]: 0.931 kg
- MFCR (mortality adjusted) Day 0-20 [2]: 1.310
- ABW (average body weight) Day 0 [3]: 0.040 kg
- ABW (average body weight) Day 11 [3]: 0.334 kg
- ABW (average body weight) Day 20 [3]: 0.943 kg
- ABW (average body weight) Day 25 [3]: 1.384 kg
- ABW (average body weight) Day 42 [3]: 3.407 kg
- AFD (average feed intake) Day 0-11 [3]: 0.352 kg
- AFD (average feed intake) Day 0-42 [3]: 5.188 kg
- AFD (average feed intake) Day 11-20 [3]: 0.821 kg
- AFD (average feed intake) Day 11-25 [3]: 1.479 kg
- AFD (average feed intake) Day 20-25 [3]: 0.658 kg
- AFD (average feed intake) Day 20-42 [3]: 4.015 kg
- AFD (average feed intake) Day 25-42 [3]: 3.357 kg
- AWG (average weight gain) Day 0-11 [3]: 0.294 kg
- AWG (average weight gain) Day 0-42 [3]: 3.367^ab kg
- AWG (average weight gain) Day 11-20 [3]: 0.609 kg
- AWG (average weight gain) Day 11-25 [3]: 1.050 kg
- AWG (average weight gain) Day 20-25 [3]: 0.441 kg
- AWG (average weight gain) Day 20-42 [3]: 2.464^ab kg
- AWG (average weight gain) Day 25-42 [3]: 2.023^b kg
- EPEF (European production and efficiency factor) Day 20 [3]: 352.0
- EPEF (European production and efficiency factor) Day 42 [3]: 278.3
- MFCR (mortality adjusted FCR) Day 11-20 [3]: 1.348
- MFCR (mortality adjusted FCR) Day 11-25 [3]: 1.409
- MFCR (mortality adjusted FCR) Day 20-25 [3]: 1.495
- MFCR (mortality adjusted FCR) Day 25-42 [3]: 1.706
- MFCR (mortality adjusted feed conversion ratio) Day 0-11 [3]: 1.210^ab
- MFCR (mortality adjusted) Day 0-42 [3]: 1.560
- MFCR (mortality adjusted) Day 20-42 [3]: 1.665
- AFD (average feed intake) Day 0-20 [3]: 1.173 kg
- AWG (average weight gain) Day 0-20 [3]: 0.903 kg
- MFCR (mortality adjusted) Day 0-20 [3]: 1.303
- ABW (average body weight) Day 0 [4]: 0.041 kg
- ABW (average body weight) Day 11 [4]: 0.351 kg
- ABW (average body weight) Day 20 [4]: 0.991 kg
- ABW (average body weight) Day 25 [4]: 1.426 kg
- ABW (average body weight) Day 42 [4]: 3.464 kg
- AFD (average feed intake) Day 0-11 [4]: 0.360 kg
- AFD (average feed intake) Day 0-42 [4]: 5.201 kg
- AFD (average feed intake) Day 11-20 [4]: 0.841 kg
- AFD (average feed intake) Day 11-25 [4]: 1.526 kg
- AFD (average feed intake) Day 20-25 [4]: 0.685 kg
- AFD (average feed intake) Day 20-42 [4]: 4.001 kg
- AFD (average feed intake) Day 25-42 [4]: 3.315 kg
- AWG (average weight gain) Day 0-11 [4]: 0.310 kg
- AWG (average weight gain) Day 0-42 [4]: 3.423^b kg
- AWG (average weight gain) Day 11-20 [4]: 0.640 kg
- AWG (average weight gain) Day 11-25 [4]: 1.075 kg
- AWG (average weight gain) Day 20-25 [4]: 0.434 kg
- AWG (average weight gain) Day 20-42 [4]: 2.473^ab kg
- AWG (average weight gain) Day 25-42 [4]: 2.039^b kg
- EPEF (European production and efficiency factor) Day 20 [4]: 364.8
- EPEF (European production and efficiency factor) Day 42 [4]: 265.0
- MFCR (mortality adjusted FCR) Day 11-20 [4]: 1.343
- MFCR (mortality adjusted FCR) Day 11-25 [4]: 1.440
- MFCR (mortality adjusted FCR) Day 20-25 [4]: 1.599
- MFCR (mortality adjusted FCR) Day 25-42 [4]: 1.704
- MFCR (mortality adjusted feed conversion ratio) Day 0-11 [4]: 1.168^a
- MFCR (mortality adjusted) Day 0-42 [4]: 1.563
- MFCR (mortality adjusted) Day 20-42 [4]: 1.678
- AFD (average feed intake) Day 0-20 [4]: 1.201 kg
- AWG (average weight gain) Day 0-20 [4]: 0.951 kg
- MFCR (mortality adjusted) Day 0-20 [4]: 1.284
- ABW (average body weight) Day 0 [5]: 0.040 kg
- ABW (average body weight) Day 11 [5]: 0.325 kg
- ABW (average body weight) Day 20 [5]: 0.947 kg
- ABW (average body weight) Day 25 [5]: 1.388 kg
- ABW (average body weight) Day 42 [5]: 3.304 kg
- AFD (average feed intake) Day 0-11 [5]: 0.348 kg
- AFD (average feed intake) Day 0-42 [5]: 5.201 kg
- AFD (average feed intake) Day 11-20 [5]: 0.829 kg
- AFD (average feed intake) Day 11-25 [5]: 1.490 kg
- AFD (average feed intake) Day 20-25 [5]: 0.661 kg
- AFD (average feed intake) Day 20-42 [5]: 4.023 kg
- AFD (average feed intake) Day 25-42 [5]: 3.362 kg
- AWG (average weight gain) Day 0-11 [5]: 0.285 kg
- AWG (average weight gain) Day 0-42 [5]: 3.265^ab kg
- AWG (average weight gain) Day 11-20 [5]: 0.622 kg
- AWG (average weight gain) Day 11-25 [5]: 1.064 kg
- AWG (average weight gain) Day 20-25 [5]: 0.441 kg
- AWG (average weight gain) Day 20-42 [5]: 2.357^ab kg
- AWG (average weight gain) Day 25-42 [5]: 1.916^ab kg
- EPEF (European production and efficiency factor) Day 20 [5]: 354.5
- EPEF (European production and efficiency factor) Day 42 [5]: 276.2
- MFCR (mortality adjusted FCR) Day 11-20 [5]: 1.333
- MFCR (mortality adjusted FCR) Day 11-25 [5]: 1.406
- MFCR (mortality adjusted FCR) Day 20-25 [5]: 1.513
- MFCR (mortality adjusted FCR) Day 25-42 [5]: 1.793
- MFCR (mortality adjusted feed conversion ratio) Day 0-11 [5]: 1.236^b
- MFCR (mortality adjusted) Day 0-42 [5]: 1.612
- MFCR (mortality adjusted) Day 20-42 [5]: 1.739
- AFD (average feed intake) Day 0-20 [5]: 1.178 kg
- AWG (average weight gain) Day 0-20 [5]: 0.907 kg
- MFCR (mortality adjusted) Day 0-20 [5]: 1.302
- effect on MFCR at day 42 compared with positive control (FIG. 2) (treatment groups 3, 5, 6, 7 and 8, challenged with dirty litter): positive effect on MFCR
- effect on growth: average body weight at day 42 compared with positive control (FIG. 1) (treatment groups 3, 5, 6, 7 and 8, challenged with dirty litter containing Campylobacter): positive effect on growth
